For this test, the target named is T1, Anthranilate phosphoribosyltransferase (Mycobacterium tuberculosis (strain CDC 1551 / Oshkosh), UniProt P9WFX4).
T1 sequence (P9WFX4 whole entry): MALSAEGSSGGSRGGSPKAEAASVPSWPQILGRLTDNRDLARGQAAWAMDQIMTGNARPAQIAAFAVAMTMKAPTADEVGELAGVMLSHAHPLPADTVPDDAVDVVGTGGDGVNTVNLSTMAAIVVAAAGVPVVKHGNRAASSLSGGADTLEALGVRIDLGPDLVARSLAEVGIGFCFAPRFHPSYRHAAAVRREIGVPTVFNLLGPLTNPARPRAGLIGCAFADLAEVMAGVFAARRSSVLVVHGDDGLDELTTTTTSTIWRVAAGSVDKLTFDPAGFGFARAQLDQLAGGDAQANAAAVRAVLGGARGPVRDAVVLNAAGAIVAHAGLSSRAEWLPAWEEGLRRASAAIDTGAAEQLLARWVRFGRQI
The test is described as follows: Fluoresence-based Assay.

Here are results for 2 compounds from BindingDB's records for doi:10.1021/bi301387m (University of Auckland, 2013).

Excerpt: An enzyme-coupled absorbance-based assay developed in house was used to determine the inhibitor-enzyme kinetic parameters of Mtb-AnPRT, including ki values for the inhibitors.

For `COc1ccc(C(=O)O)cc1N` [ACS No 126], the affinity corresponds to a Ki of 60 µM. The same measure for `NC(CCCNc1ccc([N+](=O)[O-])cc1[N+](=O)[O-])CC(=O)O` (configuration not stated) [ACS No 165]: 79 µM.

By Ki is commonly meant a dissociation constant, usually derived from enzyme kinetics or from competition with a known ligand.
